Measured values taken from ChEMBL document CHEMBL1142168, “Prevalence and susceptibility testing of new species of pseudallescheria and scedosporium in a collection of clinical mold isolates” (2007).
Values after ≈ are worked out from the molar mass of the structure shown.

Columns and labels:
[1] = tested on: Scedosporium apiospermum; experiment: Antifungal activity against Scedosporium apiospermum isolates at 48 hrs
[2] = Antifungal activity against Scedosporium aurantiacum sputum isolate CNM-CM-2631 at 48 hrs; format: functional
[3] = tested on: Scedosporium aurantiacum; experiment: Antifungal activity against Scedosporium aurantiacum corneal isolate CNM-CM-2923 at 48 hrs; format: functional; settings: Cornea
[4] = Antifungal activity against Scedosporium aurantiacum bronchial aspirate isolate CNM-CM-4183 at 48 hrs; format: functional
[5] = tested on: Scedosporium aurantiacum; experiment: Antifungal activity against Scedosporium aurantiacum ear swab isolate CNM-CM-2846 at 48 hrs; format: functional

CCC(C)n1ncn(-c2ccc(N3CCN(c4ccc(OCC5COC(Cn6cncn6)(c6ccc(Cl)cc6Cl)O5)cc4)CC3)cc2)c1=O (stereo not given) [ITRACONAZOLE]
MIC [1]: 0.25 µg/mL (≈ 0.354 µM)
MIC [2]: 2 µg/mL (≈ 2.83 µM)
MIC [3]: 16 µg/mL (≈ 22.7 µM)
MIC [4]: 16 µg/mL (≈ 22.7 µM)
MIC [5]: 8 µg/mL (≈ 11.3 µM)

C[C@@H]1[C@H](O)[C@@H](C)/C=C/C=C/C=C/C=C/C=C/C=C/C=C/[C@H](O[C@@H]2O[C@H](C)[C@@H](O)[C@H](N)[C@@H]2O)C[C@@H]2O[C@](O)(C[C@@H](O)C[C@@H](O)[C@H](O)CC[C@@H](O)C[C@@H](O)CC(=O)O[C@H]1C)C[C@H](O)[C@H]2C(=O)O [AMPHOTERICIN B]
MIC [1]: 0.25 µg/mL (≈ 0.271 µM)
MIC [2]: 4 µg/mL (≈ 4.33 µM)
MIC [3]: 8 µg/mL (≈ 8.66 µM)
MIC [4]: 8 µg/mL (≈ 8.66 µM)
MIC [5]: 16 µg/mL (≈ 17.3 µM)

C[C@@H](c1ncncc1F)[C@](O)(Cn1cncn1)c1ccc(F)cc1F [VORICONAZOLE]
MIC [1]: 0.125 µg/mL (≈ 0.358 µM)
MIC [2]: 0.5 µg/mL (≈ 1.43 µM)
MIC [3]: 16 µg/mL (≈ 45.8 µM)
MIC [4]: 0.5 µg/mL (≈ 1.43 µM)
MIC [5]: 1 µg/mL (≈ 2.86 µM)
